Here are results for two compounds from patent publication US9802939.

Read-outs that look alike come from different tables or passages of the source.

The conditions of this series: 12-membered ring.

On to `CC(C)(C)OC(=O)N[C@H]1CC=CCCOc2ccccc2-c2cn(COCC[Si](C)(C)C)c1n2`, for which the ring closure, isolated yield (from C=CCCOc1ccccc1-c1cn(COCC[Si](C)(C)C)c([C@H](CC=C)NC(=O)OC(C)(C)C)n1, rcm bond, Grubbs II (1 eq)/pTsOH, DCM, 1.02 mM, 40.0 °C) was found to be 20%.

Where the note is “from COC(=O)Nc1ccc(-c2cn(COCC[Si](C)(C)C)c([C@H](CN(CCC(=O)O)C(=O)OC(C)(C)C)NC(=O)OCc3ccccc3)n2)c(N)c1, amide bond, BOP/DIEA, DCM/DMF, 0.93 mM, 25.0 °C”, `COC(=O)Nc1ccc2c(c1)NC(=O)CCN(C(=O)OC(C)(C)C)C[C@H](NC(=O)OCc1ccccc1)c1nc-2cn1COCC[Si](C)(C)C` registered a ring closure, isolated yield of 87%.
